Laboratory results taken from patent publication US20100331333A1, “Imidazo [1,2-B] Pyridazine Compounds” (Wyeth LLC, priority 2007, published 2010).

Experiments:
human LXRα = molecular target: T1, human LXRα (Homo sapiens, UniProt Q13133); test: Ligand-binding test procedure for human LXRα; conditions: 3H T0901317 tracer; biotinylated hLXRα from E. coli extract
T1 construct: biotin (biotinylated); made in house; host or cells: E. coli
T1 sequence (Q13133 1-447): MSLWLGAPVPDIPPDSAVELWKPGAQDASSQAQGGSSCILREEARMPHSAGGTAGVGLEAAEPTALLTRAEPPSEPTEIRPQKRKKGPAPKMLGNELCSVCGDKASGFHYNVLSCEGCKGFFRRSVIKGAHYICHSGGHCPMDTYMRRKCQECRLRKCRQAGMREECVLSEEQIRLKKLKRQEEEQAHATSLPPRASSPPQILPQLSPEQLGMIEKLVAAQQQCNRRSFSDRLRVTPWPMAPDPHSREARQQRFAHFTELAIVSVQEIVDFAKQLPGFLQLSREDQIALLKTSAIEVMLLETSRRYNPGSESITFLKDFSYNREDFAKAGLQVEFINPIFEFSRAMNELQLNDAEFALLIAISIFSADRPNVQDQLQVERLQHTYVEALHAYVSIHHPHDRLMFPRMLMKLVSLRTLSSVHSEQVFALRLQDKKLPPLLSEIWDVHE
Description: II. Ligand-Binding Test Procedure for Human LXRα.
(§1) Buffer: 100 mM KCl, 100 mM TRIS (pH 7.4 at +4° C.), 8.6% glycerol, 0.1 mM PMSF*, 2 mM MTG*, 0.2% CHAPS (* not used in wash buffer)
Receptor source: E. coli extract from cells expressing biotinylated hLXRα. Extract was made in a similar buffer as above, but with 50 mM TRIS.
(§2) Washed streptavidin and coated flash plates with wash buffer. Diluted receptor extract to give Bmax ˜4000 cpm and add to the wells. Wrapped the plates in aluminum foil and stored them at +4° C. over night.
Made a dilution series in DMSO of the test ligands. Made a 5 nM solution of the radioactive tracer in buffer. Mixed 250 μl diluted tracer with 5 μl of the test ligand from each concentration of the dilution series.
Washed the receptor-coated flash plates.
Added 200 μl per well of the ligand/radiolabel mixture to the receptor-coated flash plates. Wrapped the plates in aluminum foil and incubate at +4° C. over night.
(§3) Aspirated wells, and wash the flashed plates. Sealed the plate. Measured the remaining radioactivity in the plate.

human LXRβ = molecular target: T2, human LXRβ (Homo sapiens, UniProt P55055); test: Ligand-binding test procedure for human LXRβ; conditions: 3H T0901317 tracer; biotinylated hLXRβ from E. coli extract
T2 construct: biotin (biotinylated); made in house; host or cells: E. coli
T2 sequence (P55055 1-460): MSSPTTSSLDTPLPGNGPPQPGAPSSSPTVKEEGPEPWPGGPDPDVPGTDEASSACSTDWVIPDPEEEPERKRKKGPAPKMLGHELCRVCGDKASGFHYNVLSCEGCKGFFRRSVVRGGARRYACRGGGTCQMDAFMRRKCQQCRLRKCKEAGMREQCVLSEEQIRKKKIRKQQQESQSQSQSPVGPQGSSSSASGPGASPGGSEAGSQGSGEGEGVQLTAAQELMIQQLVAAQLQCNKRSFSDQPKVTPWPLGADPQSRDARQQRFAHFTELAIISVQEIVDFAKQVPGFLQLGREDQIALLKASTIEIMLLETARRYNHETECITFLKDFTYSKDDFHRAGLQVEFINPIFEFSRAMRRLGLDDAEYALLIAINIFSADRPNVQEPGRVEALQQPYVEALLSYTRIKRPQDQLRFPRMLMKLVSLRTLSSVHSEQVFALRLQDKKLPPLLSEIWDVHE
Description: IV. Ligand-Binding Test Procedure for Human LXRβ.
as §1
Receptor source: E. coli extract from cells expressing biotinylated hLXRβ. Extract was made in a similar buffer as above, but with 50 mM TRIS.
as §2
Made a dilution series in DMSO of the test ligands. Made a 5 nM solution of the radioactive tracer in buffer. Mixed 250 μl diluted tracer with 5 μl of the test ligand from each concentration of the dilution series. Washed the receptor-coated flash plates. Added 200 μl per well of the ligand/radiolabel mixture to the receptor-coated flash plates. Wrapped the plates in aluminum foil and incubate at +4° C. over night.
as §3

ABCA1 gene = test: Quantitative analysis of ABCA1 gene regulation in THP-1 cells; assay type: cell-based; conditions: Gene regulation by LXR (human), differentiated THP-1 cells; for EC50: 18 hrs, ABCA1 mRNA by real-time PCR; for Agonism ABCA1: LXR agonist reference dosed at 1.0 uM as positive control
Description: III. Quantitative Analysis of ABCA1 Gene Regulation in THP-1 Cells.
The compounds of formula (I) effect on the regulation of the ABCA1 gene was evaluated using the following procedure.
Cell culture: The THP-1 monocytic cell line (ATCC # TIB-202) was obtained from American Type Culture Collection (Manassas, Va.) and cultured in RPMI 1640 medium (Gibco, Carlsbad, Calif.) containing 10% FBS, 2 mM L-glutamine, and 55 uM beta-Mercaptoethanol (BME). Cells were plated in 96-well format at a density of 7.5×10^4 in complete medium containing 50-100 ng/ml phorbal 12,13-dibutyrate (Sigma, St. Louis, Mo.) for three days to induce differentiation into adherent macrophages. Differentiated THP-1 cells were treated with test compounds or ligands dissolved in DMSO (Sigma, D-8779) in culture medium lacking phorbal ester. […] Dose response effects were measured in duplicate, in the range of 0.001 to 30 micromolar concentrations and treated cells were incubated for an additional 18 hrs prior to RNA isolation. Unstimulated cells treated with vehicle were included as negative controls on each plate. An LXR agonist reference, N-(2,2,2-trifluoro-ethyl)-N-[4-(2,2,2-trifluoro-1-hydroxy-1-trifluoromethyl-ethyl)-phenyl]-benzenesulfonamide (Schultz, Joshua R., Genes & Development (2000), 14(22), 2831-2838), was dosed at 1.0 uM and served as a positive control. In antagonist mode, the compound under study is analyzed in the presence of 150 nM GW3965, trifluoromethyl-benzyl)-(2,2-diphenyl-ethyl)-amino]-propoxy]-phenyl)-acetic acid (Collins, J. L., J. Med. Chem. (2000), 45:1963-1966.). Results of antagonist analysis are expressed as % antagonism and IC50 (in μM). RNA isolation and quantitation: Total cellular RNA was isolated from treated cells cultured in 96-well plates using PrepStation 6100 (Applied Biosystems, Foster City, Calif.), according to the manufacturer's recommendations. RNA was resuspended in ribonuclease-free water and stored at −70° C. prior to analysis. RNA concentrations were quantitated with RiboGreen test procedure, #R-11490 (Molecular Probes, Eugene, Oreg.). Gene expression analysis: Gene-specific mRNA quantitation was performed by real-time PCR with the Perkin Elmer Corp. chemistry on an ABI Prism 7700 Sequence detection system (Applied Biosystems, Foster City, Calif.) according to the manufacturer's instructions. Samples (50-100 ng) of total RNA were assayed in duplicate or triplicate in 50 ul reactions using one-step RT-PCR and the standard curve method to estimate specific mRNA concentrations. Sequences of gene-specific primer and probe sets were designed with Primer Express Software (Applied Biosystems, Foster City, Calif.). The human ABCA1 primer and probe sequences are: forward, […], reverse, […], and probe, 6FAM-[…]-TAMRA. RT and PCR reactions were performed according to PE Applied Biosystem's protocol for Taqman Gold RT-PCR or Qiagen's protocl for Quantitect probe RT-PCR. Relative levels of ABCA1 mRNA are normalized using GAPDH mRNA or 18S rRNA probe/primer sets purchased commercially (Applied Biosystems, Foster City, Calif.).
Mean, standard deviation and statistical significance of duplicate evaluations of RNA samples were assessed using ANOVA, one-way analysis of variance using SAS analysis.

Row | IC50 (human LXRα) [nM] | IC50 (human LXRβ) [nM] | EC50 (ABCA1 gene) [nM] | SMILES | Agonism ABCA1 (ABCA1 gene) [%]
1 | 44 | 1.96 | – | CS(=O)(=O)c1cccc(Oc2cccc(-c3c(Cc4ccccc4)nc4c(C(F)(F)F)ccnn34)c2)c1 [Example 7, 2-Benzyl-3-{3-[3-(methylsulfonyl)phenoxy]phenyl}-8-(trifluoromethyl)imidazo[1,2-b]pyridazine] | –
2 | 1570 | 148 | – | CCc1nc2c(C(F)(F)F)ccnn2c1-c1cccc(Oc2cccc(S(=O)(=O)CC)c2)c1 [Example 9, 2-Ethyl-3-{3-[3-(ethylsulfonyl)phenoxy]phenyl}-8-(trifluoromethyl)imidazo[1,2-b]pyridazine] | –
3 | 2040 | 133 | 1850 | CCc1nc2c(C(F)(F)F)ccnn2c1-c1cccc(Oc2cccc(S(C)(=O)=O)c2)c1 [Example 8, 2-ethyl-3-{3-[3-(methylsulfonyl)phenoxy]phenyl}-8-(trifluoromethyl)imidazo[1,2-b]pyridazine] | 85
4 | 1090 | 117 | 2050 | CCS(=O)(=O)c1cccc(Oc2cccc(-c3c(C(C)C)nc4c(C(F)(F)F)ccnn34)c2)c1 [Example 11, 3-{3-[3-(ethylsulfonyl)phenoxy]phenyl}-2-isopropyl-8-(trifluoromethyl)imidazo[1,2-b]pyridazine] | 92
5 | 1460 | 99 | 1840 | CC(C)c1nc2c(C(F)(F)F)ccnn2c1-c1cccc(Oc2cccc(S(C)(=O)=O)c2)c1 [Example 10, 2-isopropyl-3-{3-[3-(methylsulfonyl)phenoxy]phenyl}-8-(trifluoromethyl)imidazo[1,2-b]pyridazine] | 81
